Measurements published in US12097192B2 (Corcept Therapeutics Incorporated, priority 2019, dated 2024).

Tested on: Cushing's syndrome patients
Experiment: Cushing's syndrome patient study: ECG
Format: in vivo, human
Conditions: All Subjects
Source text: All patients gave informed consent before participating in any study-related procedures. […] The study protocol called for patient visits to the study site at screening, on Day 1 (baseline), Weeks 2, 4, 6, 8, 10, and 12, and after a 4-week follow-up period for Group 1. For Group 2, the protocol called for patient visits to the study site at screening, on Day 1 (baseline), Weeks 2, 4, 6, 8, 10, 12, 14, and 16, and after a 4-week follow-up period. Patient dosing will be done at home, except on days of study visits. […] The safety protocol also included assessments by physical examination findings, vital signs, ECG results, pregnancy tests, clinical laboratory test results (hematology and chemistry panels), adverse events (AEs), and concomitant medications. […] It ignores noncompliance, protocol deviations, withdrawal, and anything that happens after randomization. In contrast, per-protocol (PP) analysis refers to inclusion in the analysis of only those patients who strictly adhered to the protocol. The PP analysis provides an estimate of the true efficacy of an intervention, i.e., among those who completed the treatment as planned.

[1] = Safety population, Group 1 (100-200 mg/day, 12 weeks)
[2] = Safety population, Group 2 (250-400 mg/day, 16 weeks)
[3] = mITT, Group 1 (100-200 mg/day, 12 weeks)
[4] = mITT, Group 2 (250-400 mg/day, 16 weeks)

What does the source list for `Cn1cc(S(=O)(=O)N2CCC3=Cc4c(cnn4-c4ccc(F)cc4)C[C@]3(C(=O)c3cc(C(F)(F)F)ccn3)C2)cn1` [relacorilant, (R)-(1-(4-fluorophenyl)-6-((1-methyl-1H-pyrazol-4-yl)sulfonyl)-4,4a,5,6,7,8-hexahydro-1H-pyrazolo[3,4-g]isoquinolin-4a-yl) (4-(trifluoromethyl)pyridin-2-yl)methanone]?
ECG Median Heart Rate mean change from Baseline to Last Observed [1]: 8 beats/min; PR Interval, Aggregate mean change from Baseline to Last Observed [1]: 2.72 ms; QRS Duration, Aggregate mean change from Baseline to Last Observed [1]: -0.79 ms; QT Interval, Aggregate mean change from Baseline to Last Observed [1]: -15.85 ms; QTcB Interval, Aggregate mean change from Baseline to Last Observed [1]: 5.58 ms; QTcF Interval, Aggregate mean change from Baseline to Last Observed [1]: -1.98 ms; RR Interval, Aggregate mean change from Baseline to Last Observed [1]: -93.14 ms; ECG Median Heart Rate mean change from Baseline to Last Observed [2]: 5.23 beats/min; PR Interval, Aggregate mean change from Baseline to Last Observed [2]: -4.2 ms; QRS Duration, Aggregate mean change from Baseline to Last Observed [2]: -0.77 ms; QT Interval, Aggregate mean change from Baseline to Last Observed [2]: -11.04 ms; QTcB Interval, Aggregate mean change from Baseline to Last Observed [2]: 2.28 ms; QTcF Interval, Aggregate mean change from Baseline to Last Observed [2]: -2.54 ms; RR Interval, Aggregate mean change from Baseline to Last Observed [2]: -56.67 ms; ECG Median Heart Rate mean change from Baseline to Last Observed (Safety population, Overall): 6.7 beats/min; PR Interval, Aggregate mean change from Baseline to Last Observed (Safety population, Overall): -0.4 ms; QRS Duration, Aggregate mean change from Baseline to Last Observed (Safety population, Overall): -0.78 ms; QT Interval, Aggregate mean change from Baseline to Last Observed (Safety population, Overall): -13.6 ms; QTcB Interval, Aggregate mean change from Baseline to Last Observed (Safety population, Overall): 4.03 ms; QTcF Interval, Aggregate mean change from Baseline to Last Observed (Safety population, Overall): -2.24 ms; RR Interval, Aggregate mean change from Baseline to Last Observed (Safety population, Overall): -76.04 ms; ECG Median Heart Rate mean change from Baseline to Last Observed [3]: 8 beats/min; PR Interval, Aggregate mean change from Baseline to Last Observed [3]: 2.72 ms; QRS Duration, Aggregate mean change from Baseline to Last Observed [3]: -0.79 ms; QT Interval, Aggregate mean change from Baseline to Last Observed [3]: -15.85 ms; QTcB Interval, Aggregate mean change from Baseline to Last Observed [3]: 5.58 ms; QTcF Interval, Aggregate mean change from Baseline to Last Observed [3]: -1.98 ms; RR Interval, Aggregate mean change from Baseline to Last Observed [3]: -93.14 ms; ECG Median Heart Rate mean change from Baseline to Last Observed [4]: 5.23 beats/min; PR Interval, Aggregate mean change from Baseline to Last Observed [4]: -4.2 ms; QRS Duration, Aggregate mean change from Baseline to Last Observed [4]: -0.77 ms; QT Interval, Aggregate mean change from Baseline to Last Observed [4]: -11.04 ms; QTcB Interval, Aggregate mean change from Baseline to Last Observed [4]: 2.28 ms; QTcF Interval, Aggregate mean change from Baseline to Last Observed [4]: -2.54 ms; RR Interval, Aggregate mean change from Baseline to Last Observed [4]: -56.67 ms; ECG Median Heart Rate mean change from Baseline to Last Observed (mITT, Overall): 6.7 beats/min; PR Interval, Aggregate mean change from Baseline to Last Observed (mITT, Overall): -0.4 ms; QRS Duration, Aggregate mean change from Baseline to Last Observed (mITT, Overall): -0.78 ms; QT Interval, Aggregate mean change from Baseline to Last Observed (mITT, Overall): -13.6 ms; QTcB Interval, Aggregate mean change from Baseline to Last Observed (mITT, Overall): 4.03 ms; QTcF Interval, Aggregate mean change from Baseline to Last Observed (mITT, Overall): -2.24 ms; RR Interval, Aggregate mean change from Baseline to Last Observed (mITT, Overall): -76.04 ms
